According to publication PMC7311426, “An amphipathic peptide with antibiotic activity against multidrug-resistant Gram-negative bacteria” (Nature Communications, 2020):
Like-named read-outs stand apart in the source and are kept apart here. Residues, ends and D or L forms follow the SMILES beside them.

Legend:
K. pneumoniae = experiment: microbe, parasite or virus in culture
Procedure: (§1) Antimicrobial activity of arenicin-3 and its analogs was tested against a panel of bacterial and yeast strains by in vitro broth microdilution (BMD) assay with minimum inhibitory concentration (MIC) determination. Strains were purchased from American Type Culture Collection (ATCC) or obtained from clinical collaborators (full strain profiles provided in Supplementary Data 3). All peptides were prepared in Ringer’s acetate solution, and subsequently diluted fresh in water for each independent assay.
(§2) Assays were performed in Mueller Hinton broth (MHB; BD, Cat. No. 211443) for bacteria, and yeast extract-peptone dextrose (YPD; Sigma-Aldrich, Y1500) for yeast. The concentrations of the peptides and comparator antibiotics/antifungals in the assay wells ranged from either 128 or 64 μg mL^−1, to 0.06 or 0.03 μg mL^−1 as a 12-point dose response plated as a 2-fold dilution series across the wells of the plate in duplicate for each independent biological replicate, using a final cell density of 5 × 10^5 CFU mL^−1 and 2.5 × 10^3 CFU mL^−1 for bacteria and yeast respectively. Final assay volumes were 100 μL per well with MICs determined visually following 18-20 h incubation at 37 °C for bacteria, 24 h incubation at 35 °C for Candida albicans, and 24 h incubation at 35 °C with resazurin addition (0.006%; Sigma-Aldrich, Cat # R7017) for a further 3 h for Cryptococcus neoformans, without shaking. Additional bacterial and yeast susceptibility assays were performed in Cation-Adjusted Mueller Hinton Broth (CAMHB; BD, Cat No. 212322) and Roswell Park Memorial Institute (RPMI) 1640 culture medium (Life Technologies Australia, Cat No. 21870092), respectively, as recommended by CLSI guidelines (M07 11th ed[36] and M27 4th ed[37]). […] Agarose MICs were determined in MHB with 1% agarose (Bioline molecular grade; Cat no: BIO-41025; high purity, high gel strength). All experiments were performed a minimum of six replicates (n ≥ 6).

E. coli = experiment: microbe, parasite or virus in culture
Procedure: as §1, §2

A. baumannii = experiment: microbe, parasite or virus in culture
Procedure: as §1, §2

S. aureus = experiment: microbe, parasite or virus in culture
Procedure: as §1, §2

P. aeruginosa = experiment: microbe, parasite or virus in culture
Procedure: as §1, §2

C. albicans = experiment: microbe, parasite or virus in culture; details: 24 h
Procedure: as §1, §2

[1] = system: HepG2 liver hepatocellular carcinoma cells; experiment: in vitro
Procedure: (§3) HEK-293 human embryonic kidney cells (ATCC CRL-1573), HepG2 liver hepatocellular carcinoma cells (ATCC HB-8065), and HK-2 human kidney proximal tubule cells (ATCC CRL-2190) cell lines were purchased from ATCC. Cytotoxicity of arenicin-3 variants was determined using the Alamar Blue (resazurin; Sigma-Aldrich, Cat # R7017), with 1% FBS for HK-2 and 10% FBS for HEK-293, and HepG2[40]. Cells were seeded as 2000 cells per well in black wall clear bottom 384-well plates (Corning®, Costar®, Cat # 3712). The cells were incubated for 24 h at 37 °C, 5% CO2. Then peptides were added into each cell containing well. After 24 h incubation, 5 μM resazurin were added per well and incubated at 37 °C for 2 h. Then the fluorescence intensity (FI) was read using a Polarstar® Omega plate reader with excitation/emission 560/590 and CC50 values were determined using Prism 8 following curve fitting and applying the following equation: Percentageviability = (FITEST-FINegative/FIUNTREATED-FINegative)×100.
(§4) Hemolytic activity was measured against isolated human erythrocytes from anonymously donated fresh human blood. Isolated erythrocytes were adjusted to 1 × 10^9 blood cells mL^−1 in phosphate-buffered saline (PBS, pH 7.4), added to the wells of NUNC polypropylene round-bottom 96-well plates (Sigma-Aldrich, Cat # P6866) then up to 300 μg mL^−1 of compound was added per well and incubated for 3 h at 37 °C. Following incubation, samples were centrifuged at 3000 rpm for 20 min, and the supernatants, 100 μL, were carefully collected for measurement. The degree of hemolysis in the samples was determined by measurement of the absorption of the supernatants at 540 nm using the Polarstar-Omega plate reader. 1% Triton-X100 was used as positive control for inducing 100% hemolysis. HC10 and HC50 values were determined using Prism 8 following curve fitting. The use of human blood (sourced from the Australian Red Cross Blood Service) for hemolysis assays was approved by the University of Queensland Institutional Human Research Ethics Committee, Approval Number 2014000031. All in vitro toxicity assays were performed for two independent biological replicates as an 8-point dose response of 3-fold dilution series in triplicate with the highest test concentration of 300 μg mL^−1.

[2] = system: HK-2 human kidney proximal tubule cells; experiment: in vitro
Procedure: as §3, §4

in vitro = details: human
Procedure: as §3, §4

[3] = system: HEK-293 human embryonic kidney cells; experiment: in vitro
Procedure: as §3, §4

[4] = system: human erythrocytes (HRBC); assay type: cell-based
[5] = K. pneumoniae ATCC 13883 type strain (polymyxin/colistin heteroresistant), MHB, mode of 6 replicates
[6] = E. coli ATCC 25922 FDA control strain, MHB, mode of 6 independent biological replicates
[7] = A. baumannii ATCC 19636 type strain, MHB, mode of 6 replicates
[8] = S. aureus ATCC 25923 MSSA, MHB, mode of 6 replicates
[9] = P. aeruginosa ATCC 27853 control strain, MHB, mode of 6 replicates

Compound: CC(C)[C@@H]1NC(=O)[C@H](Cc2ccc(O)cc2)NC(=O)[C@H](Cc2c[nH]c3ccccc23)NC(=O)[C@@H](NC(=O)CN)CSSC[C@@H](C(=O)N[C@@H](CC(N)=O)C(=O)O)NC(=O)[C@H](CCCNC(=N)N)NC(=O)[C@H](CCCNC(=N)N)NC(=O)[C@H](Cc2ccc(O)cc2)NC(=O)[C@@H]2CSSC[C@H](NC1=O)C(=O)N[C@@H](C)C(=O)N[C@@H](CCCNC(=N)N)C(=O)N[C@@H](CCCNC(=N)N)C(=O)N[C@@H](CC(N)=O)C(=O)NCC(=O)N[C@@H](C)C(=O)N[C@@H](CCCNC(=N)N)C(=O)N[C@@H](C(C)C)C(=O)N2 [AB0016] (HELM PEPTIDE1{G.C.W.Y.V.C.A.R.R.N.G.A.R.V.C.Y.R.R.C.N}$PEPTIDE1,PEPTIDE1,2:R3-19:R3|PEPTIDE1,PEPTIDE1,6:R3-15:R3$$$V2.0)
- BMD MIC (K. pneumoniae; [5]): 2 µg/mL
- BMD MIC (E. coli; [6]): 1 µg/mL
- BMD MIC (A. baumannii; [7]): 1 µg/mL
- BMD MIC (S. aureus; [8]): >64 µg/mL
- BMD MIC (P. aeruginosa; [9]): 1 µg/mL

Compound: CC(C)[C@@H]1NC(=O)[C@H](Cc2ccc(O)cc2)NC(=O)[C@H](Cc2c[nH]c3ccccc23)NC(=O)[C@@H](NC(=O)[C@@H](N)Cc2ccccc2)CSSC[C@@H](C(=O)N[C@@H](CC(N)=O)C(=O)O)NC(=O)[C@H](CCCNC(=N)N)NC(=O)[C@H](CCCNC(=N)N)NC(=O)[C@H](Cc2ccc(O)cc2)NC(=O)[C@@H]2CSSC[C@H](NC1=O)C(=O)N[C@@H](C)C(=O)N[C@@H](CCCNC(=N)N)C(=O)N[C@@H](CCCNC(=N)N)C(=O)N[C@@H](CC(N)=O)C(=O)NCC(=O)N[C@@H](C)C(=O)N[C@@H](CCCNC(=N)N)C(=O)N[C@@H](C(C)C)C(=O)N2 [AB0015] (HELM PEPTIDE1{F.C.W.Y.V.C.A.R.R.N.G.A.R.V.C.Y.R.R.C.N}$PEPTIDE1,PEPTIDE1,2:R3-19:R3|PEPTIDE1,PEPTIDE1,6:R3-15:R3$$$V2.0)
- BMD MIC (K. pneumoniae; [5]): 2 µg/mL
- BMD MIC (E. coli; [6]): 0.5 µg/mL
- BMD MIC (A. baumannii; [7]): 0.5 µg/mL
- BMD MIC (S. aureus; [8]): >64 µg/mL
- BMD MIC (P. aeruginosa; [9]): 1 µg/mL

Compound: CC(C)C[C@@H]1NC(=O)CNC(=O)[C@H](CC(N)=O)NC(=O)[C@H](CCCNC(=N)N)NC(=O)[C@H](CCCCN)NC(=O)[C@H](C)NC(=O)[C@@H]2CSSC[C@H](NC(=O)[C@H](C(C)C)NC(=O)[C@H](CCCNC(=N)N)NC1=O)C(=O)N[C@@H](Cc1ccc(O)cc1)C(=O)N[C@@H](CCCNC(=N)N)C(=O)N[C@@H](CCCNC(=N)N)C(=O)N[C@H](C(=O)N[C@@H](CC(N)=O)C(=O)O)CSSC[C@H](NC(=O)[C@H](Cc1ccccc1)NC(=O)CN)C(=O)N[C@@H](Cc1c[nH]c3ccccc13)C(=O)N[C@@H](Cc1ccc(O)cc1)C(=O)N[C@@H](C)C(=O)N2 [NZ17126] (HELM PEPTIDE1{G.F.C.W.Y.A.C.A.K.R.N.G.L.R.V.C.Y.R.R.C.N}$PEPTIDE1,PEPTIDE1,3:R3-20:R3|PEPTIDE1,PEPTIDE1,7:R3-16:R3$$$V2.0)
- BMD MIC (K. pneumoniae): 0.25 µg/mL
- BMD MIC (E. coli): 0.125 µg/mL
- BMD MIC (A. baumannii): 1 µg/mL
- BMD MIC (S. aureus): 32 µg/mL
- BMD MIC (P. aeruginosa): 0.25 µg/mL
- BMD MIC (C. albicans): >64 µg/mL
- CC50 HepG2 [1]: >300 µg/mL
- CC50 HepG2, Mean [1]: >300 µg/mL
- CC50 HK2 [2]: >254 µg/mL
- CC50 HK2, Mean [2]: >250 µg/mL
- CC50 at 24 h (in vitro; HEK-293 cells): > 300 µg/mL
- CC50 at 24 h (in vitro; HK-2 cells): > 250 µg/mL
- CC50 at 24 h (in vitro; HepG2 cells): > 300 µg/mL
- CC50 HEK293 [3]: >300 µg/mL
- CC50 HEK293, Mean [3]: >300 µg/mL
- Heamolysis HC10, Mean [4]: 232 µg/mL

Compound: CC(C)[C@@H]1NC(=O)[C@H](Cc2ccc(O)cc2)NC(=O)[C@H](Cc2c[nH]c3ccccc23)NC(=O)[C@@H](NC(=O)[C@H](Cc2ccccc2)NC(=O)CN)CSSC[C@@H](C(N)=O)NC(=O)[C@H](CCCNC(=N)N)NC(=O)[C@H](CCCNC(=N)N)NC(=O)[C@H](Cc2ccc(O)cc2)NC(=O)[C@@H]2CSSC[C@H](NC1=O)C(=O)N[C@@H](C)C(=O)N[C@@H](CCCNC(=N)N)C(=O)N[C@@H](CCCNC(=N)N)C(=O)N[C@@H](CC(N)=O)C(=O)NCC(=O)N[C@@H](C)C(=O)N[C@@H](CCCNC(=N)N)C(=O)N[C@@H](C(C)C)C(=O)N2 [AB0017] (HELM PEPTIDE1{G.F.C.W.Y.V.C.A.R.R.N.G.A.R.V.C.Y.R.R.C.[am]}$PEPTIDE1,PEPTIDE1,3:R3-20:R3|PEPTIDE1,PEPTIDE1,7:R3-16:R3$$$V2.0)
- BMD MIC (K. pneumoniae; [5]): 0.125 µg/mL
- BMD MIC (E. coli; [6]): 0.5 µg/mL
- BMD MIC (A. baumannii; [7]): 1 µg/mL
- BMD MIC (S. aureus; [8]): 64 µg/mL
- BMD MIC (P. aeruginosa; [9]): 0.25 µg/mL
